Test results reported in patent publication US20040132740A1, “Novel antibiotics” (priority 2001, published 2004).
Structures can show the parent of a compound that is named as a salt.

Legend:
[1] = system: Pseudomones aeruginose; assay: MIC / effective maintenance dose to control bacterial re-growth, clinically isolated Pseudomones aeruginose; type: cell-based; details: clinically isolated microorganism
Description: (§1) The minimum inhibitory concentration (MIC) of compound (A) and ciprofloxacin were also studied using clinically isolated microorganism staphylococcus aureus and pseudomotias aeruginose.
(§2) The experimental work was carried out according to an established clinical procedure […] (Mackie and McCartney, ibid).

[2] = LD50 on mice; details: mouse, in vivo
[3] = system: gram-positive and gram-negative organisms; assay: Antibacterial effect compared with ciprofloxacin hydrochloride under the same experimental conditions; type: cell-based, E. coli and St. aureus; details: hydrochloride salt
Description: (§3) An aqueous solution of the salts of the compounds reported in this invention namely compound (A) and compound (B) were tested in vitro against E. coli and St. aureus according to an established clinical procedure (Mackie and McCartney: Practical Medical Microbiology, Churchill livingstone, 1996, 14th edition, p159-163).

[4] = system: Staphylococcus aureus; assay: MIC / effective maintenance dose to control bacterial re-growth, clinically isolated Staphylococcus aureus; type: cell-based; details: clinically isolated microorganism, read-out: effective maintenance dose necessary to control bacterial re-growth (MIC), Staphylococcus aureus
Description: as §1, §2

[5] = system: E. coli; assay: Minimum inhibitory concentration in vitro against E. coli; type: cell-based; details: Escherichia coli, aqueous solution of hydrochloride salts
Description: as §3

[6] = system: bacteria; assay: Further incubation of the positive samples for up to 16 hours (bacterial re-growth); type: cell-based
Description: as §2

[7] = system: St. aureus; assay: Minimum inhibitory concentration in vitro against St. aureus; type: cell-based; details: Staphylococcus aureus, aqueous solution of hydrochloride salts
Description: as §3

SMILES | effective maintenance dose necessary to control bacterial re-growth (MIC), Pseudomones aeruginose [1] | LD50 [2] | antibacterial effect towards gram-positive and gram-negative organisms [3] | MIC [4] | MIC [5] | sensitivity and effectiveness as antibacterial agent ([6]; compared with ciprofloxacin hydrochloride) | bacterial growth after further incubation of the positive samples ([6]; incubation up to 16 hours, dose of 0.0 μg/ml printed for compound (A)) | MIC [7] | melting point
O=c1ccn(C2CC2)c2cc(N3CCNCC3)c(F)cc12 [Compound (A) HCl salt, 1-cyclopropyl-6-fluoro-1,4-dihydro-4-oxo-7(1-piperazinyl)-quinoline] | 0.05 µg/mL | 28 mg/kg | better antibacterial effect | 0.06 µg/mL | 0.01 µg/mL | more sensitive and effective | very slow bacterial growth | 0.08 µg/mL | –
CN1CCN(c2cc3c(cc2F)c(=O)ccn3C2CC2)CC1 [Compound (B), 1-cyclopropyl-6-fluoro-1,4-dihydro-4-oxo-7-(1-(4-methyl)piperazinyl)-quinoline] | – | – | better antibacterial effect | – | – | – | – | – | –
CN1CCN(c2cc3c(cc2F)c(=O)ccn3C2CC2)CC1 (as salt: hydrochloride) [Compound (B), 1-cyclopropyl-6-fluoro-1,4-dihydro-4-oxo-7-(1-(4-methyl)piperazinyl)-quinoline] | – | – | – | – | – | – | – | – | 238 to 240 °C
